The text below walks through data of PMC11561622, “Evaluating Antimalarial Proteasome Inhibitors for Efficacy in Babesia Blood Stage Cultures” (ACS Omega, 2024).

As a reminder, the EC50 is the midpoint of the concentration-response curve.

For series [1], the system named is endogenous polyubiquitinated proteins in B. divergens. Nature of the series: Western blot of polyubiquitinated proteins in treated B. divergens cultures. The conditions noted are these: 200 nM, 24 h, anti-Ubiquitin K48 western blot, vs 0.1% DMSO. The series is classed as cell-based, Babesia divergens. How it is done:
To assess the on-target effect of proteasome inhibition, protein lysates of B. divergens isolated from bovine erythrocyte cultures were evaluated for the accumulation of polyubiquitinated proteins. The B. divergens cultures underwent two 12 h treatments (totaling 24 h) with 200 nM of the inhibitor in culture medium. Parasites were released from RBCs and protein lysates were prepared as described above. The resulting samples were then centrifuged at 15,000g for 15 min at 4 °C and protein concentrations of the resulting supernatant were determined using Bradford assay.[29] Samples were prepared for SDS-PAGE in reducing Laemmli buffer supplemented with β-mercaptoethanol. Ten micrograms of protein was applied per lane and proteins were separated on gradient (4–15%) Criterion TGX Stain-Free Precast gels (BioRad) in Tris-Glycine-SDS running buffer (25 mM Tris, 192 mM glycine, and 0.1% (w/vol) SDS, pH 8.3) and visualized using TGX stain-free chemistry (BioRad). […] After washing (3 × 10 min) in PBS-T, signals were detected using Clarity Max Western ECL substrate (BioRad), visualized using a ChemiDoc MP imager, analyzed, and adjusted using the ImageLab freeware (BioRad).
Background: Immunoblotting shows a protein as a band on a membrane.

The subject of a further series is B. divergens. As to the kind of experiment: B. divergens growth in bovine erythrocyte cultures (flow cytometry parasitemia). The series is classed as cell-based, Babesia divergens. The conditions noted are these: for EC50: bovine erythrocyte cultures, 48 h, dose-response. How it is done:
Blood stage cultures of B. divergens (strain 2210A G2) were maintained in erythrocytes from defibrinated bovine blood (BioTrading Benelux B.V.). Parasites were multiplied in in vitro erythrocyte cultures containing RPMI 1640 medium (Lonza, cat. no. BE12-115F) supplemented with 50 μg/mL gentamicin (Lonza), 0.25 μg/mL amphotericin B (Sigma-Aldrich), and 20% (v/v) heat-inactivated fetal calf serum (Lonza, inactivation at 56 °C for 30 min before use). Cells were cultured at 37 °C in a 5% CO2 environment. B. microti (Franca) (ATTC PRA-99) was maintained by continuous intraperitoneal passages in BALB/c female mice (Charles River Laboratories). All laboratory animals were treated in accordance with the Animal Protection Law of the Czech Republic No. 246/1992 Sb., ethics approval no. 25/2018. The study was approved by the Institute of Parasitology, Biology Centre of the Czech Academy of Sciences and the Central Committee for the Animal Welfare, Czech Republic (protocol no. 1/2015).
To evaluate the effect of inhibitors on B. divergens replication, cultures (5% hematocrit) containing 2% parasitemia were cultivated in media. Single concentration screens were first performed using 600 nM of compound and then dose–response assays (5400 to 2.34 nM) were subsequently performed for compounds of interest. Assays were performed twice in triplicate wells in a 96-well tissue culture plate format (TPP, Switzerland) and media containing inhibitors were replaced at 12 h intervals for a total of 48 h. DMSO diluted in medium (0.1%) served as a vehicle control. The parasitemia of intraerythrocytic B. divergens was determined using flow cytometry following the staining of nucleic acids as described previously.[31] Briefly, infected red blood cells were fixed in a solution of 4% paraformaldehyde and 0.025% glutaraldehyde in PBS for 30 min at room temperature (RT). […] Parasitemia was analyzed using a FACS CantoII flow cytometer and Diva software provided by BD Biosciences. The EC50 of compounds in the dose–response inhibition was determined in GraphPad Prism 10 using nonlinear regression.

A further series deals with HepG2 cells. The conditions noted are these: previously reported; cited from earlier work.
Series [2] relates to catalytic subunits of Bd20S. As to the kind of experiment: Activity-based probe labeling (Me4BodipyFL-Ahx3Leu3VS) of Bd20S catalytic subunits. The format is binding, Babesia divergens. The settings on record: lysates from CFZ- and CPB-treated cells, vs vehicle.

On to `CCCCCC(=O)N[C@H](C(=O)N[C@@H](CCS(C)(=O)=O)C(=O)N[C@@H](CC(C)C)C(=O)[C@@]1(C)CO1)C(C)C` [carmaphycin B], for which the “accumulation of endogenous polyubiquitinated proteins” value in series [1] is “marked accumulation”. Further, the “Selectivity index (B. divergens over HepG2 cells)” value in the series on B. divergens (HepG2 EC50 / B. divergens EC50) was determined as 0.21. Besides, the EC50 is 0.0595 ± 0.0128 µM in the series with B. divergens, 0.0595 ± 0.0128 µM with B. divergens (listed as CPB) and 0.0126 ± 0.0014 µM with HepG2 cells. For the same molecule, in series [2], the “labeling of catalytic subunits by activity-based probe” value is “significantly reduced”.
